In patent publication US12344584B2, “KCNQ potentiators” (Eli Lilly and Company, priority 2019, dated 2025):

Molecular target: T1, hKv7.2 and hKv7.3 (Kv7.2/7.3) (Homo sapiens, UniProt O43525+O43526)
T1 construct: host or cells: HEK293
Assay: Modulation of Kv7.2/7.3 conductance, automated electrophysiology (IonWorks Barracuda, population patch clamp) in HEK293 cells
Format: cell-based
Design: Voltage Shift ([…]V0.5), Mean: unit not given here
Experimental: Modulation of Kv7.2/7.3 Conductance by Kv7 Potentiators in a Mammalian Expression System
The potency and efficacy of Kv7 potentiators is assessed by automated electrophysiology on the IonWorks Barracuda (Molecular Devices) platform using the population patch clamp mode of the instrument.
Cell Culture: HEK293 cells stably expressing hKv7.2 (under tetracycline induction) and hKv7.3 (Catalog #CT6147, Charles River) are used for these studies. Cells are maintained in a Dulbecco's modified Eagle's medium/nutrient mixture Ham's F-12 (Sigma-Aldrich) supplemented with 5% tetracycline-screened fetal bovine serum (Sigma-Aldrich), 15 mM HEPES, 500 μg/mL G418, 100 U/mL penicillin, 100 μg/mL streptomycin, […] L-glutamine, 100 μg/mL zeocin, and 5 μg/mL blasticidin. Expression of hKv7.2 is induced by addition of 1 μg/mL doxycycline 24 h prior to recordings.
Cells are cultured in Corning T-150 flasks to a confluence of 85%-95%. At the start of an experiment, cells are washed once with D-PBS without calcium and magnesium and then dissociated by incubating in 3 ml of 0.25% trypsin for 8 min at 37° C. Cells ware resuspended in media, triturated gently, and centrifuged for 4 min at 1,000 rpm. Cells are resuspended in external solution to a final concentration of 2.5-3.5M cells/mL.
Solutions: External solution w is composed of (in mM): 140 NaCl, 5 KCl, 2 CaCl2, 1 MgCl2, 10 HEPES, 10 Glucose, pH 7.4. Internal solution is composed of (in mM): 90 K-gluconate, 40 KCl, 3.2 EGTA, 3.2 MgCl2, 5 HEPES, pH 7.25. The membrane perforating agent amphotericin B is prepared daily as a 27 mg/mL stock solution in DMSO and then added to the internal solution to a final concentration of 0.1 mg/mL. Test article dilutions are prepared in 384-well plates from 10 mM DMSO stock solutions and diluted using acoustic dispensing (Labcyte ECHO®), such that final DMSO concentrations are 0.1%.
Electrophysiological Recordings: Resuspended cells are placed on the IONWORKS® BARRACUDA™ (IWB) instrument, external solution is added to a 384-well patch plate, and a hole test is performed to determine blocked wells and offset voltages. Cells are then added to the patch plate (9 μL per well) by the instrument. Two seal tests are performed prior to introducing the perforating agent amphotericin in the internal solution and allowing approximately 8 min to obtain electrical access, which is verified by a third seal test. The command voltage protocol consists of a family of 1 sec voltages steps from −80 mV to +40 mV from a holding potential of −80 mV and is applied prior to (baseline) and 6 min after test article addition.
Data Analysis: Data are acquired and leak subtracted using IWB software. Current amplitudes during the last 10 msec of each voltage step are averaged and exported. Further analysis is performed using Microsoft Excel and GraphPad Prism. Current amplitude is converted to conductance (G) by the following formula: G=I/(V−Ek) where I=current, V=step potential, Ek=potassium reversal potential (−84 mV). Conductance in the presence of test article is normalized to the baseline conductance at +40 mV for the same well. Conductance-voltage (G−V) curves are fitted with the Boltzmann equation y=Bottom+(Top−Bottom)/(1+EXP((Vm−V0.5/k)).
Fitting a 4-parameter logistic equation to the data may be used to determine the potency (EC50) and efficacy (maximal shift) for each test compound.

[1] = 4-parameter logistic fit of voltage shift data

- Voltage Shift ([…]V0.5), Mean (0.0005 μM): 2.6
- Voltage Shift ([…]V0.5), Mean (0.0015 μM): 2.0
- Voltage Shift ([…]V0.5), Mean (0.005 μM): 3.0
- Voltage Shift ([…]V0.5), Mean (0.01 μM): 1.6
- Voltage Shift ([…]V0.5), Mean (0.04 μM): 1.3
- Voltage Shift ([…]V0.5), Mean (0.12 μM): 0.0
- Voltage Shift ([…]V0.5), Mean (0.37 μM): −3.5
- Voltage Shift ([…]V0.5), Mean (1.11 μM): −13.2
- Voltage Shift ([…]V0.5), Mean (3.33 μM): −28.0
- Voltage Shift ([…]V0.5), Mean (10 μM, difference from control in voltage at half-maximal conductance): −38.0
- Maximal Shift (efficacy) [1]: −44
- Slope [1]: 1.2
- EC50 (4-parameter logistic fit of voltage shift data, read-out: EC50 (potency of V0.5 shift)): 2000 nM
Compound: CC(C)(C)[C@H](O)CNC(=O)NCc1ccnc(OCC(F)(F)F)c1 [Example 1, 1-[(2S)-2-hydroxy-3,3-dimethyl-butyl]-3-[[2-(2,2,2-trifluoroethoxy)-4-pyridyl]methyl]urea]
